Consider one molecule from patent publication US20040127518A1, “Modulation of anxiety through blockade of anandamide hydrolysis” (priority 2002, published 2004).

One series addresses T1, FAAH (Rattus norvegicus, UniProt P97612).
T1 sequence (P97612 1-579): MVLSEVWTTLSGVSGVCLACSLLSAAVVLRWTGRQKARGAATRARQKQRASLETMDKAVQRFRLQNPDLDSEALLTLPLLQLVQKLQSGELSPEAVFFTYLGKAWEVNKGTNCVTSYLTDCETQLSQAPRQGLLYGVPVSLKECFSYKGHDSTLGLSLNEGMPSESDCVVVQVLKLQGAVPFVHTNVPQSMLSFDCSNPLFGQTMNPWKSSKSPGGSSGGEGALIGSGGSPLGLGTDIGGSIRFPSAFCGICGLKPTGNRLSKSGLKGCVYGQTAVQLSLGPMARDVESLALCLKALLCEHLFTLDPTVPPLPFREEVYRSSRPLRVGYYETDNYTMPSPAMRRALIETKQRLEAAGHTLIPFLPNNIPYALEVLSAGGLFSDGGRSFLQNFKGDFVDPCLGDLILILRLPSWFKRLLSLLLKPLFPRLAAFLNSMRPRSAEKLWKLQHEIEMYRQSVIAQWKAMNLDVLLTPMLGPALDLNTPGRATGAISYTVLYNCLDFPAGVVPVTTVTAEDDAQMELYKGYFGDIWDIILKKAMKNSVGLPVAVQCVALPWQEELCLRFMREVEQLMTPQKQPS
In words: FAAH-catalyzed hydrolysis of [3H]anandamide by intact cortical neurons in primary cultures. It counts as cell-based. The following applies: n=8, read-out: IC50, hydrolysis of exogenous [3H]anandamide.

The nature of series [1]: Body temperature (rectal probe). It counts as in vivo. Particulars: UCM532 10 mg kg-1 i.p.; UCM597 0.3 mg kg-1 i.p. The source says: (§1) We dissolved all compounds in saline/Tween 80/polyethylenglycol (90/5/5) and administered them by i.p. injection immediately before tests. We measured body temperature with a rectal probe (Type T, Copper-Costantan Thermocouple-Physitemp Instruments INC, Clifton, N.J.) connected to a digital thermometer (model BAT-12 Physitemp Instruments INC, Clifton, N.J.); and catalepsy using the procedure described in Tseng and Craft (Tseng, A. H. et al., Eur. J. Pharmacol., 430, 41-47 (2001)).

The next series can be described thus: Catalepsy. The following applies: UCM532 10 mg kg-1 i.p.; UCM597 0.3 mg kg-1 i.p.; data not shown. The class given is in vivo.
Text: as §1

Another series in a line: Mouse formalin test. The following applies: dose not stated, data not shown. The class given is in vivo. The method, then:
We dissolved FAAH inhibitors in polyethyleneglycol/water (1/1) and rimonabant in saline. Formalin and hot-plate assays were carried out in the mouse, as described (Beltramo, M. et al., FEBS Lett., 403, 263-267 (1997)).
The compounds exerted, however, moderate antinociceptive effects in two models of acute pain.

Series [2] is described as follows: Isolation-induced ultrasonic vocalization emission in rat pups. The class given is in vivo. The following applies: 5 mg kg-1.
The target of series [3] is electric eel acetylcholinesterase (Electrophorus electricus, UniProt O42275).
For series [4], the target named is horse plasma butyryl cholinesterase (Equus caballus, UniProt P81908). In words: Cholinesterase assay with commercial kit, purified enzyme.
Text: (§2) We prepared cell fractions from rat brain homogenates, and assayed membrane FAAH activity and cytosol MGL activity using anandamide [ethanolamine-3H] (American Radiolabeled Chemicals, ARC (St. Louis Mo.), 60 Ci/mmol) and 2-mono-oleoyl-glycerol-[glycerol-1,2,3^−3H] (ARC, St. Louis Mo., 20 Ci/mmol), respectively, as substrates (Dinh, T. Proc. Natl. Acad. Sci. U.S.A. (2002)). We conducted [^3H]anandamide transport assays in human astrocytoma cells (Piomelli, D. et al., Proc. Natl. Acad. Sci. U.S.A., 96, 5802-5807 (1999)); CB1 and CB2 binding assays in rat cerebellar membranes and CB2-overexpressing Chinese hamster ovary cells (Receptor Biology-Perkin Elmer, Wellesley, Mass.), respectively, using [^3H]WIN-55212-2 (NEN-Dupont, Boston, Mass., 40-60 Ci/mmol) as a ligand (Devane, W. A. et al. Science, 258, 1946-1949 (1992)); cholinesterase assays with a commercial kit (Sigma, St. Louis, Mo.), using purified enzymes (electric eel acetylcholinesterase type V-S and horse serum cholinesterase; both from Sigma, St. Louis, Mo.) and following manufacturer's instructions.
In another series the target is CB2 receptor (Homo sapiens, UniProt P34972). In words: CB2 binding assay in CB2-overexpressing Chinese hamster ovary cells, [3H]WIN-55212-2.
Sequence of CB2 receptor (P34972 whole entry): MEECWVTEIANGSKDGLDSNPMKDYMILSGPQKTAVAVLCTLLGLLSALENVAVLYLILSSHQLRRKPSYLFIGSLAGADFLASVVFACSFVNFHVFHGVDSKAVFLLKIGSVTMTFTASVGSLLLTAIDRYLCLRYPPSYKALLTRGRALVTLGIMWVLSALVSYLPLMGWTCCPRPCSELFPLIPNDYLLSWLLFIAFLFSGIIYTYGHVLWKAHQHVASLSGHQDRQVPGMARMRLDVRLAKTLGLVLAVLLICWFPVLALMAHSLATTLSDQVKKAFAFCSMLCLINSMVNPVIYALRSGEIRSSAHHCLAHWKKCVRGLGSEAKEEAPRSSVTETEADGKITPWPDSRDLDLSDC

Sequence of horse plasma butyryl cholinesterase (P81908 whole entry): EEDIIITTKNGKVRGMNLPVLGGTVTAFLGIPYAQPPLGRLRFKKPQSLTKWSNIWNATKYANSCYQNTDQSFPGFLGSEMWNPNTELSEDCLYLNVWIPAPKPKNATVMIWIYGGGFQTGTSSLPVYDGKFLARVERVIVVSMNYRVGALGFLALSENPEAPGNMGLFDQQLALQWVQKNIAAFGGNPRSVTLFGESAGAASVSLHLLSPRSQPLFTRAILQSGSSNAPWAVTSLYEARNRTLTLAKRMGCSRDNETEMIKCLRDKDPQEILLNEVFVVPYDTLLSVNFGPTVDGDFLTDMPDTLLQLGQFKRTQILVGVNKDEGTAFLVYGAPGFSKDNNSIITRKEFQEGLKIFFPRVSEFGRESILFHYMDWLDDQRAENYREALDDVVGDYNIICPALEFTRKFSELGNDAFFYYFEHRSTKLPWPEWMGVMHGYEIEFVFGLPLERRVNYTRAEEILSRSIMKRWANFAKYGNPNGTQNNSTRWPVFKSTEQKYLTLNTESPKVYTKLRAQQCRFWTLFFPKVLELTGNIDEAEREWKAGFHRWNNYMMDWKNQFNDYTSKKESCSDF
Sequence of electric eel acetylcholinesterase (O42275 whole entry): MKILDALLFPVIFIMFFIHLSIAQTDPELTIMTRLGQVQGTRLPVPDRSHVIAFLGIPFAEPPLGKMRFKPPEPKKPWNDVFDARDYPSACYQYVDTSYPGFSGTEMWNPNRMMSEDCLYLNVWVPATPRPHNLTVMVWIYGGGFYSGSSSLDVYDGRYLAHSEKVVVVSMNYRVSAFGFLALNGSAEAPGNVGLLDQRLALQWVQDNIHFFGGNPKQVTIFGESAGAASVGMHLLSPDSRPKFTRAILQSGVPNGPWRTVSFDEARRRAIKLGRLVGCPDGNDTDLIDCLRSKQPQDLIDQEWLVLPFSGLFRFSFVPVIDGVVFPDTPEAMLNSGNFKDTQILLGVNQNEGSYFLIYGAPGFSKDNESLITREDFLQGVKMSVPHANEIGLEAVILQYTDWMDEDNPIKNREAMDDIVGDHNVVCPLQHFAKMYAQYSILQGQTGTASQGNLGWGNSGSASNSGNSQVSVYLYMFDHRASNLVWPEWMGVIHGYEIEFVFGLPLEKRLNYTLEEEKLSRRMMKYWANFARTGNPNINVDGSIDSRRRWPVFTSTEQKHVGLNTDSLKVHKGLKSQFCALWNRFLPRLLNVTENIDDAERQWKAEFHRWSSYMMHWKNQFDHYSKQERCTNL
Text for CB2 receptor: as §2

In the case of `CCCCNC(=O)Oc1ccc(OCc2ccccc2)cc1` [UCM532, n-Butylcarbamic acid 4-benzyloxyphenyl ester], the IC50 – broadly, the concentration that gives 50% inhibition – on FAAH was 214 ± 79 nM. Further, the “body temperature / hypothermia, compound alone” value in series [1] is recorded as “no”. Also, the “catalepsy (rigid immobility)” value in “Catalepsy” is listed as “no catalepsy”. The “antinociceptive effect, formalin test, compared with UCM597” value in “Mouse formalin test” is on record as “mimicked, albeit less effectively”. The isolation-induced ultrasonic calls in series [2] is “strongly reduced”. Moreover, the “effect on acetylcholinesterase activity (in words)” value in series [3] is reported as “did not affect”. Also, the “AChE: maximal concentration of FAAH inhibitor tested” value in series [3] (Table 2) was greater than 100 µM. For the same molecule, the “effect on butyryl cholinesterase activity (in words)” value in series [4] was “did not affect”. In addition, in series [4] (Table 2), the “BCh SI (maximal concentration tested/IC50 for FAAH)” value is “≧333” and the “BCh: maximal concentration of FAAH inhibitor tested” value is greater than 100 µM. In addition, the “effect on binding of a high-affinity ligand to CB2 (in words)” value on CB2 receptor is “no effect”. For the same molecule, at CB2 receptor (Table 2), the “CB2: maximal concentration of FAAH inhibitor tested” value is greater than 300 µM and the “CB2 SI (maximal concentration tested/IC50 for FAAH)” value is “≧1000”.
